{
  "source": "patent US20200230247A1",
  "about": "“COMBINATION THERAPIES COMPRISING TARGETED THERAPEUTICS” (TARVEDA THERAPEUTICS, INC., priority 2017, published 2020)",
  "system": "NCI-H69 (small cell lung cancer) tumors",
  "assay": "Antitumor efficacy in mice bearing NCI-H69 tumors",
  "assay_type": "in vivo",
  "conditions": "Conjugate 1 12.5 mpk once per week IV, Talazoparib 0.33 mpk PO daily 4 days on/three days off, combo: Talazoparib starting 24 hrs post Conjugate 1 dose, tumor volumes measured up to 16 days after treatment",
  "experimental": "Mice bearing NCI-H69 (small cell lung cancer) tumors were treated with the following.\n1). Vehicle controls; 2). 12.5 mpk (mg per kilogram) of Conjugate 1 once per week via intravenous administration (IV); 3). 0.33 mpk Talazoparib daily for 4 days on/three days off via oral administration (PO); 4). 12.5 mpk Conjugate 1 once per week via IV, and 0.33 mpk Talazoparib daily for 4 days on/three days off starting 24 hrs post Conjugate 1 dose.\nTumor volumes were measured 3 days, 8 days, 10 days, 13 days and 16 days after treatment.",
  "data": [
    {"smiles": "CCc1c2c(nc3ccc(OC(=O)N4CCC(CCn5ccc6cc(-n7c(O)nnc7-c7cc(C(C)C)c(O)cc7O)ccc65)CC4)cc13)-c1cc3c(c(=O)n1C2)COC(=O)[C@]3(O)CC", "note": "[Conjugate 1, (S)-4,11-diethyl-4-hydroxy-3,14-dioxo-3,4,12,14-tetrahydro-1H-pyrano[3′,4′:6,7]indolizino[1,2-b]quinolin-9-yl 4-(2-(5-(3-(2,4-dihydroxy-5-isopropylphenyl)-5-hydroxy-4H-1,2,4-triazol-4-yl)-1H-indol-1-yl)ethyl)piperidine-1-carboxylate]", "values": [
      {"measurement": "Tumor Growth Inhibition (TGI %)", "value": 50.67, "unit": "%"}
    ]},
    {"smiles": "Cn1ncnc1[C@H]1c2n[nH]c(=O)c3cc(F)cc(c23)N[C@@H]1c1ccc(F)cc1", "note": "[Talazoparib, talazoparib]", "values": [
      {"measurement": "Tumor Growth Inhibition (TGI %)", "value": 15.66, "unit": "%"}
    ]}
  ]
}
